Assay results from the NIST ThermoML archive (doi:10.1021/je060355j).
Numbers after ± are expanded uncertainties.

Key:
[1] = refractive index (Na D-line) (dimensionless); details: 101.33 kPa, Liquid
[2] = Liquid; for mass density: 101.32 kPa
[3] = xn = mol fraction of the nth substance listed; details: 101.32 kPa, Liquid
[4] = excess molar enthalpy (molar enthalpy of mixing); xn = mol fraction of the nth substance listed; details: 291.15 K, 101.32 kPa, Liquid

CCCCOC=O [butyl methanoate]
Details	mass density, 291.15 K [kg/m3]	mass density, 298.15 K [kg/m3]	mass density, 308.15 K [kg/m3]	mass density, 318.15 K [kg/m3]	refractive index, 291.15 K	refractive index, 298.15 K	refractive index, 318.15 K	vapor or sublimation pressure, 380.13 K [kPa]
[1]	–	–	–	–	1.3904 ± 0.0011	1.3872 ± 0.0011	1.3776 ± 0.0011	–
[2]	896 ± 2.4	888.66 ± 2.4	878.24 ± 2.4	867.21 ± 2.4	–	–	–	101.32 ± 1.1

CCOC=O [ethyl methanoate]
Details	mass density, 291.15 K [kg/m3]	mass density, 298.15 K [kg/m3]	mass density, 308.15 K [kg/m3]	mass density, 318.15 K [kg/m3]	refractive index, 291.15 K	refractive index, 298.15 K	refractive index, 318.15 K	vapor or sublimation pressure, 327.33 K [kPa]
[1]	–	–	–	–	1.3614 ± 0.0011	1.358 ± 0.0011	1.3474 ± 0.0011	–
[2]	924.7 ± 2.3	915.16 ± 2.3	902.07 ± 2.3	888.42 ± 2.4	–	–	–	101.32 ± 1

CCCCCC [hexane]
Details	mass density, 291.15 K [kg/m3]	mass density, 298.15 K [kg/m3]	mass density, 308.15 K [kg/m3]	mass density, 318.15 K [kg/m3]	refractive index, 291.15 K	refractive index, 298.15 K	refractive index, 318.15 K	vapor or sublimation pressure, 341.76 K [kPa]
[1]	–	–	–	–	1.3765 ± 0.001	1.372 ± 0.001	1.3618 ± 0.001	–
[2]	661.2 ± 2	654.89 ± 2.1	646.07 ± 2.1	636.43 ± 2.2	–	–	–	101.32 ± 1

CCCCCC [hexane] + CCCCOC=O
[3], x2 = 0
Details	mass density [kg/m3]
291.15 K	661.2 ± 2
298.15 K	654.89 ± 2.1
308.15 K	646.07 ± 2.1
318.15 K	636.43 ± 2.2

CCCCCC [hexane] + CCCOC=O
[3], x2 = 0
Details	mass density [kg/m3]
291.15 K	661.2 ± 2
298.15 K	654.89 ± 2.1
308.15 K	646.07 ± 2.1
318.15 K	636.43 ± 2.2

CCCCCC [hexane] + CCOC=O
[3], x2 = 0
Details	mass density [kg/m3]
291.15 K	661.2 ± 2
298.15 K	654.89 ± 2.1
308.15 K	646.07 ± 2.1
318.15 K	636.43 ± 2.2

CCCCCC [hexane] + COC=O
[3], x2 = 0
Details	mass density [kg/m3]
291.15 K	661.2 ± 2
298.15 K	654.89 ± 2.1

COC=O [methyl methanoate]
Details	mass density, 291.15 K [kg/m3]	mass density, 298.15 K [kg/m3]	refractive index, 291.15 K	refractive index, 298.15 K	vapor or sublimation pressure, 304.7 K [kPa]
[1]	–	–	1.3452 ± 0.001	1.3415 ± 0.001	–
[2]	976.9 ± 0.67	966.54 ± 0.72	–	–	101.32 ± 1

COC=O [methyl methanoate] + CCCCCC
[4]
Details	excess molar enthalpy [kcal/mol]
x1 = 0.1408	0.253 ± 0.00454
x1 = 0.252	0.389 ± 0.00645
x1 = 0.3379	0.462 ± 0.00765
x1 = 0.4008	0.492 ± 0.00813
x1 = 0.4618	0.504 ± 0.00813
x1 = 0.5094	0.502 ± 0.00813
x1 = 0.5501	0.493 ± 0.00813
x1 = 0.5862	0.481 ± 0.00789
x1 = 0.6157	0.462 ± 0.00765
x1 = 0.6568	0.439 ± 0.00717
x1 = 0.7033	0.41 ± 0.00669
x1 = 0.7517	0.37 ± 0.00621
x1 = 0.7971	0.33 ± 0.0055
x1 = 0.845	0.281 ± 0.00478
x1 = 0.8923	0.219 ± 0.00406
x1 = 0.9292	0.153 ± 0.00335
x1 = 0.9665	0.0896 ± 0.00239

mass density [kg/m3], [3]
Details	291.15 K	298.15 K
x1 = 0.019	663 ± 2	–
x1 = 0.0376	–	659.63 ± 2.1
x1 = 0.0499	666.3 ± 2	–
x1 = 0.0816	–	664.26 ± 2
x1 = 0.0863	670.6 ± 2	–
x1 = 0.1013	672.6 ± 2	–
x1 = 0.1209	675.3 ± 2	–
x1 = 0.1327	–	670.55 ± 2
x1 = 0.1642	–	674.8 ± 2
x1 = 0.2033	687.1 ± 1.9	–
x1 = 0.2352	–	685.32 ± 1.9
x1 = 0.2936	–	695.29 ± 1.9
x1 = 0.2986	702.6 ± 1.9	–
x1 = 0.3828	718.9 ± 1.8	–
x1 = 0.3903	–	714.41 ± 1.8
x1 = 0.4841	742.3 ± 1.7	–
x1 = 0.4987	–	740.05 ± 1.7
x1 = 0.5462	759.1 ± 1.6	–
x1 = 0.5979	–	768.9 ± 1.6
x1 = 0.6061	777.4 ± 1.6	–
x1 = 0.6987	810.1 ± 1.4	–
x1 = 0.7062	–	806.5 ± 1.4
x1 = 0.7433	–	821.74 ± 1.4
x1 = 0.7445	829.1 ± 1.4	–
x1 = 0.7956	851.5 ± 1.3	–
x1 = 0.7972	–	845.31 ± 1.3
x1 = 0.8392	872.6 ± 1.2	–
x1 = 0.8497	–	871.94 ± 1.2
x1 = 0.903	908.4 ± 1.1	–
x1 = 0.905	–	902.05 ± 1.2
x1 = 0.9539	939.9 ± 1.1	–
x1 = 0.9582	–	936.28 ± 1.1
x1 = 1	976.9 ± 0.67	966.54 ± 0.72

CCCOC=O [propyl methanoate]
Details	mass density, 291.15 K [kg/m3]	mass density, 298.15 K [kg/m3]	mass density, 308.15 K [kg/m3]	mass density, 318.15 K [kg/m3]	refractive index, 291.15 K	refractive index, 298.15 K	refractive index, 318.15 K	vapor or sublimation pressure, 353.92 K [kPa]
[1]	–	–	–	–	1.3778 ± 0.0011	1.375 ± 0.0011	1.365 ± 0.0011	–
[2]	907.8 ± 2.3	899.08 ± 2.3	888.36 ± 2.4	875.32 ± 2.4	–	–	–	101.32 ± 1
